According to patent publication US20090197859A1 (Pfizer Inc., priority 2008, published 2009):

Tests used:
[1] = biological target: T1, cloned human 5-HT6 receptor (Homo sapiens, UniProt P50406); assay: 5-HT6 Receptor Binding Assay ([3H]-LSD radioligand, SPA); conditions: read-out: 5HT6 % inh @ 1 uM
T1 construct: host or cells: HeLa cells, G-418 selection, membrane preparation
Method in brief: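 Membranes from HeLa cells expressing cloned human 5-HT6 receptor, mixed with WGA-coated SPA beads in 20 mM HEPES, 10 mM MgCl2, 150 mM NaCl, 1 mM EDTA pH 7.4 with [3H]-LSD; 1 h at room temperature. Eleven concentrations in duplicate; one-site fit IC50 converted to Ki by Cheng-Prusoff.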

T1 sequence (P50406 whole entry): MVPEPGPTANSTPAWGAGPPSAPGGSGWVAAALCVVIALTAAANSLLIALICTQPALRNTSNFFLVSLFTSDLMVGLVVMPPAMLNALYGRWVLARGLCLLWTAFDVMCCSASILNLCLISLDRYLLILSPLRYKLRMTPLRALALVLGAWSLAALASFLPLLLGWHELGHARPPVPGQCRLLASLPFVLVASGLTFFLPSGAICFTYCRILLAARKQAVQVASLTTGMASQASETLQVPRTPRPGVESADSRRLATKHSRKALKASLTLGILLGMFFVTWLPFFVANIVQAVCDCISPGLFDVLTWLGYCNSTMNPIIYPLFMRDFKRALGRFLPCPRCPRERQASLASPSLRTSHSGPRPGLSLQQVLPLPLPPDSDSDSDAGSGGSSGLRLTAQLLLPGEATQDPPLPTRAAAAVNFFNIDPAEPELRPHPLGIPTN

Compound	melting point [°C]	inhibition at 1 µM [1] [%]
Cc1ccc(O[C@@H]2CCCN(C(=O)c3cccc(N4CCCNCC4)n3)C2)cc1 [Example 54, (6-[1,4]Diazepan-1-yl-pyridin-2-yl)-((R)-3-p-tolyloxy-piperidin-1-yl)-methanone]	140	86.4
CN1CCN(c2cccc(C(=O)N3CCC(c4ccccc4F)CC3)n2)CC1 [Example 20, [4-(2-Fluoro-phenyl)-piperidin-1-yl]-[6-(4-methyl-piperazin-1-yl)-pyridin-2-yl]-methanone]	111 to 113	101
O=C(c1cccc(N2CCCNCC2)n1)N1CCC[C@H](Oc2ccccc2F)C1 [Example 40, (6-[1,4]Diazepan-1-yl-pyridin-2-yl)-[(S)-3-(2-fluoro-phenoxy)-piperidin-1-yl]-methanone]	158 to 159	100
CN1CCN(c2cccc(C(=O)N(C)Cc3ccccc3Cl)n2)CC1 [Example 65, 6-(4-Methyl-piperazin-1-yl)-pyridine-2-carboxylic acid (2-chloro-benzyl)-methyl-amide]	73 to 74	89.6
CN1CCN(c2cccc(C(=O)N3CCCC[C@H]3c3ccccc3F)n2)CC1 [Example 56, [(S)-2-(2-Fluoro-phenyl)-piperidin-1-yl]-[6-(4-methyl-piperazin-1-yl)-pyridin-2-yl]-methanone]	111.7 to 112.2	90.7
Cc1ccccc1C1CCCCN1C(=O)c1cccc(N2CCCNCC2)n1 (stereo not drawn) [Example 33, (6-[1,4]Diazepan-1-yl-pyridin-2-yl)-(2-o-tolyl-piperidin-1-yl)-methanone]	123.3 to 124	84.6
CN1CCN(c2cccc(C(=O)N3CCCC[C@@H]3c3cccc(F)c3)n2)CC1 [Example 55, [(R)-2-(3-Fluoro-phenyl)-piperidin-1-yl]-[6-(4-methyl-piperazin-1-yl)-pyridin-2-yl]-methanone]	122.7 to 123	94.2
Cc1cccc(O[C@H]2CCN(C(=O)c3cccc(N4CCCNCC4)n3)C2)c1 [Example 42, (6-[1,4]Diazepan-1-yl-pyridin-2-yl)-((S)-3-m-tolyloxy-pyrrolidin-1-yl)-methanone]	116 to 118	99.4
O=C(c1cccc(N2CCCNCC2)n1)N1CC[C@H](Oc2ccc(F)cc2)C1 [Example 25, (6-[1,4]Diazepan-1-yl-pyridin-2-yl)-[(S)-3-(4-fluoro-phenoxy)-pyrrolidin-1-yl]-methanone]	72 to 74	75.4
Cc1ccc([C@H]2CCCCN2C(=O)c2cccc(N3CCN(C)CC3)n2)cc1 [Example 66, [6-(4-Methyl-piperazin-1-yl)-pyridin-2-yl]-((R)-2-p-tolyl-piperidin-1-yl)-methanone]	143.3 to 144	82.1
O=C(c1cccc(N2CCCNCC2)n1)N1CCC[C@@H](Oc2cccc(F)c2)C1 [Example 50, (6-[1,4]Diazepan-1-yl-pyridin-2-yl)-[(R)-3-(3-fluoro-phenoxy)-piperidin-1-yl]-methanone]	172 to 174	89.6
Cc1ccccc1O[C@H]1CCN(C(=O)c2cccc(N3CCCNCC3)n2)C1 [Example 36, (6-[1,4]Diazepan-1-yl-pyridin-2-yl)-((S)-3-o-tolyloxy-pyrrolidin-1-yl)-methanone]	140 to 142	93.5
Cc1cccc(O[C@H]2CCN(C(=O)c3cccc(N4CCCN(C)CC4)n3)C2)c1 [Example 68, [6-(4-Methyl-[1,4]diazepan-1-yl)-pyridin-2-yl]-((S)-3-m-tolyloxy-pyrrolidin-1-yl)-methanone]	78 to 80	98.2
Cc1cccc(OC2CCN(C(=O)c3cccc(C4CCN(C)C4)n3)CC2)c1 (stereo not drawn) [Example 17, [6-(1-Methyl-pyrrolidin-3-yl)-pyridin-2-yl]-(4-m-tolyloxy-piperidin-1-yl)-methanone]	89 to 90	96.4
CN1CCN(c2cccc(C(=O)N(C)Cc3ccccc3F)n2)CC1 [Example 64, 6-(4-Methyl-piperazin-1-yl)-pyridine-2-carboxylic acid (2-fluoro-benzyl)-methyl-amide]	80 to 81	87.6
Cc1cccc(C2CCCCN2C(=O)c2cccc(N3CCNCC3)n2)c1 (stereo not drawn) [Example 28, (6-Piperazin-1-yl-pyridin-2-yl)-(2-m-tolyl-piperidin-1-yl)-methanone]	154.1 to 155.5	94.6

Further lines, results first:

melting point [°C]	inhibition at 1 µM [1] [%]	Compound
81 to 82	87.1	CN1CCN(c2cccc(C(=O)N(C)Cc3cccc(Cl)c3)n2)CC1 [Example 71, 6-(4-Methyl-piperazin-1-yl)-pyridine-2-carboxylic acid (3-chloro-benzyl)-methyl-amide]
75 to 76	89.9	COc1ccccc1CN(C)C(=O)c1cccc(N2CCN(C)CC2)n1 [Example 72, 6-(4-Methyl-piperazin-1-yl)-pyridine-2-carboxylic acid (2-methoxy-benzyl)-methyl-amide]
119 to 121	85.8	CN1CCC(c2cccc(C(=O)N3CCC(Oc4ccccc4Cl)CC3)n2)CC1 [Example 96, [4-(2-Chloro-phenoxy)-piperidin-1-yl]-(1′-methyl-1′,2′,3′,4′,5′,6′-hexahydro-[2,4′]bipyridinyl-6-yl)-methanone]
240.5 to 242	102	CN1CCN(c2cccc(S(=O)(=O)N3CCC(c4ccccc4F)CC3)n2)CC1 [Example 88, 1-{6-[4-(2-Fluoro-phenyl)-piperidine-1-sulfonyl]-pyridin-2-yl}-4-methyl-piperazine]
155 to 156.2	91.7	CN1CCCN(c2cccc(C(=O)N3CCCC[C@@H]3c3cccc(F)c3)n2)CC1 [Example 80, [(R)-2-(3-Fluoro-phenyl)-piperidin-1-yl]-[6-(4-methyl-[1,4]diazepan-1-yl)-pyridin-2-yl]-methanone]
128.6 to 129.2	101	Cc1c(F)cccc1C1CCN(C(=O)c2cccc(N3CCN(C)CC3)n2)CC1 [Example 104, [4-(3-Fluoro-2-methyl-phenyl)-piperidin-1-yl]-[6-(4-methyl-piperazin-1-yl)-pyridin-2-yl]-methanone]
139.6 to 141.41	97.7	Cc1ccc(F)cc1C1CCN(C(=O)c2cccc(C3CCN(C)C3)n2)CC1 (stereo not drawn) [Example 112, [4-(5-Fluoro-2-methyl-phenyl)-piperidin-1-yl]-[6-(1-methyl-pyrrolidin-3-yl)-pyridin-2-yl]-methanone]
85.1 to 86.2	101	Cc1ccc(F)cc1C1CCN(C(=O)c2cccc(N3CCN(C)CC3)n2)CC1 [Example 103, [4-(5-Fluoro-2-methyl-phenyl)-piperidin-1-yl]-[6-(4-methyl-piperazin-1-yl)-pyridin-2-yl]-methanone]
